The source made the active and inactive calls.
Experiments:
Cytochrome P450 2C9 = Cytochrome P450 2C9 (Homo sapiens, UniProt P11712)
Cytochrome P450 3A4 = Cytochrome P450 3A4 (Homo sapiens, UniProt P08684);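 further: CYP3A4 tested as one member of a cytochrome P450 panel screen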
[1] = biological target: T1, Heat shock factor protein 1 (Mus musculus, UniProt P38532); experiment: decrease of HSF1-responsive luciferase luminescence – cell-based, NIH3T3, dose retest, confirmation (AID 2382); format: functional;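 further: NIH3T3 fibroblasts with HSF1-driven luciferase reporter stressed by proteasome inhibitor MG132; luminescence from HSF1-driven luciferase expression after 8 hours of MG132 stress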
T1 sequence (P38532 whole entry): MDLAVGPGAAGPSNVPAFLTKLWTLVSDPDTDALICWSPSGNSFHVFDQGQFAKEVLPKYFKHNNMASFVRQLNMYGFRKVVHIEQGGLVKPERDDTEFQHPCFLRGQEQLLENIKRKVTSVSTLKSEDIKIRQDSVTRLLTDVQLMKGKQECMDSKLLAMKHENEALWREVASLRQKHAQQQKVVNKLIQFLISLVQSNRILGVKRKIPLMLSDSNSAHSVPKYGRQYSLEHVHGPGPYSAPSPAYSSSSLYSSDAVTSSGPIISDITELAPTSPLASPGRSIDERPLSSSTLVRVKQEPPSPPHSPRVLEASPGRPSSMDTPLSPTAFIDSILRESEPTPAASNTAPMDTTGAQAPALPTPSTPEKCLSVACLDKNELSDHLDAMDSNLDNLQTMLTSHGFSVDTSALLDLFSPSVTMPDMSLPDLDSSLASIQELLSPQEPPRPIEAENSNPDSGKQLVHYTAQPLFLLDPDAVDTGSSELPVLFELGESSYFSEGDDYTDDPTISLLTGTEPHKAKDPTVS

[2] = biological target: T2, Rac GTPase-activating protein 1 (Homo sapiens, UniProt Q9H0H5); experiment: blockers of MgcRacGAP-driven Rac1 GTP hydrolysis – biochemical, ADP Hunter fluorescence, primary and confirmatory, confirmation (AID 624330); format: functional
T2 sequence (Q9H0H5 whole entry): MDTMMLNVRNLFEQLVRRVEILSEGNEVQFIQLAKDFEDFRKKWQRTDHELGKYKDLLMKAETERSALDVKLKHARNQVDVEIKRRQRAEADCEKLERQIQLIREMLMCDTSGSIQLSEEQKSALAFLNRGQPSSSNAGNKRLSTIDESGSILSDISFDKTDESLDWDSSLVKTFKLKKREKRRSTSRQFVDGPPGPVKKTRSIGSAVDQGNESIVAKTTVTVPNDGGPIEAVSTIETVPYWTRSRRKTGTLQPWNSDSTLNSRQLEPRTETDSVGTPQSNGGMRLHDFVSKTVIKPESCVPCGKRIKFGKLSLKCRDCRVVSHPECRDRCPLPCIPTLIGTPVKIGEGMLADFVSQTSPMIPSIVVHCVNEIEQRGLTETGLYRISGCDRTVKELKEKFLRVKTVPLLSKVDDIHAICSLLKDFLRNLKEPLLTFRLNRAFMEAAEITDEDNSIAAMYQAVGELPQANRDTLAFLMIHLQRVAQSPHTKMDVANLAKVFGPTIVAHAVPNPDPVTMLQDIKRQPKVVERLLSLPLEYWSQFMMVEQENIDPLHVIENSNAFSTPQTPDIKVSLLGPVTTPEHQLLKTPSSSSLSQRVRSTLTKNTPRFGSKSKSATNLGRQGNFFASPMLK

[3] = biological target: T3, Corticotropin-releasing factor receptor 2/Corticotropin-releasing factor-binding protein (Homo sapiens, UniProt P24387+Q13324); experiment: activators of CRF receptor 2 with binding protein – uHTS hits, confirmation (AID 602473); format: functional; settings: read-out: EC50_Mean
T3 sequence (Q13324 whole entry): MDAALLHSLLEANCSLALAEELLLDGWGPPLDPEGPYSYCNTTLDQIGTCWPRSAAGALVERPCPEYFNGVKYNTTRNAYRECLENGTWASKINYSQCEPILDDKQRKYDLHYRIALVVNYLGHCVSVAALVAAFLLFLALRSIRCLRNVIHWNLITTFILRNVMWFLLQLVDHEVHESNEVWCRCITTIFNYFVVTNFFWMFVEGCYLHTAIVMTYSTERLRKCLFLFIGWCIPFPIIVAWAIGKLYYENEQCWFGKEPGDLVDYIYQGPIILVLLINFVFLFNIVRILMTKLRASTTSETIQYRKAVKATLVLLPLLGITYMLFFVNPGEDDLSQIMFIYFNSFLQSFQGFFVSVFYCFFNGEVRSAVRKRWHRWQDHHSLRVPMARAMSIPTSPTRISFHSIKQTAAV
T3 sequence (P24387 whole entry): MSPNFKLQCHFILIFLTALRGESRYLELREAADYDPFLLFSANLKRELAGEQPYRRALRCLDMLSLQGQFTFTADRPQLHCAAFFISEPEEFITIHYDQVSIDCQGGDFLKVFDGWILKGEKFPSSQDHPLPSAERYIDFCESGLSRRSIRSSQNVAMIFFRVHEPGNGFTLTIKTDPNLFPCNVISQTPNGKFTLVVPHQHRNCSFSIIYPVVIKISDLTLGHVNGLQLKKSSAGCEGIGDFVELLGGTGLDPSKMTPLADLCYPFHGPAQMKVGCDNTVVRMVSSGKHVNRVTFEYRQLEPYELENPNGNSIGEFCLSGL

[4] = biological target: T3, Corticotropin-releasing factor receptor 2/Corticotropin-releasing factor-binding protein; experiment: Dose Response confirmation of uHTS hits for small molecule antagonists of the CRF-binding protein and CRF-R2 receptor complex.; format: functional; settings: read-out: IC50_Mean
Cytochrome P450 2C19 = Cytochrome P450 2C19 (Homo sapiens, UniProt P33261); experiment: Cytochrome panel assay with activity outcomes. Panel member name: p450-cyp2c19 Compounds with AC50 equal or less than 10 uM are considered active; format: functional; settings: read-out: AC50
[5] = Luminescence Cell-Based Dose Confirmation HTS to Identify Activators of 5'UTR Stem-Loop Driven Alpha-Synuclein mRNA Translation in H4 Neuroglioblastoma Cells. [Related pubchem assays: 1829 (Project Summary), 1814 (Primary HTS)]; format: functional
[6] = Luminescence Cell-Based Dose Response HTS to Identify Activators of Luciferase Translation or Activity in H4 […] Cells. [Related pubchem assays: 1829 (Project Summary), 1814 (Primary HTS)]; format: functional
H4 = experiment: Luminescence Cell-Based Dose Response HTS to Identify Activators of 5'UTR Stem-Loop Driven Prion Protein mRNA Translation in H4 Neuroglioblastoma Cells. [Related pubchem assays: 1829 (Project Summary), 1814 (Primary HTS)]; format: functional; settings: Homo sapiens
Cytochrome P450 1A2 = biological target: T4, Cytochrome P450 1A2 (Homo sapiens, UniProt P05177);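 further: PubChem cytochrome P450 panel assay, CYP1A2 panel member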
T4 sequence (P05177 whole entry): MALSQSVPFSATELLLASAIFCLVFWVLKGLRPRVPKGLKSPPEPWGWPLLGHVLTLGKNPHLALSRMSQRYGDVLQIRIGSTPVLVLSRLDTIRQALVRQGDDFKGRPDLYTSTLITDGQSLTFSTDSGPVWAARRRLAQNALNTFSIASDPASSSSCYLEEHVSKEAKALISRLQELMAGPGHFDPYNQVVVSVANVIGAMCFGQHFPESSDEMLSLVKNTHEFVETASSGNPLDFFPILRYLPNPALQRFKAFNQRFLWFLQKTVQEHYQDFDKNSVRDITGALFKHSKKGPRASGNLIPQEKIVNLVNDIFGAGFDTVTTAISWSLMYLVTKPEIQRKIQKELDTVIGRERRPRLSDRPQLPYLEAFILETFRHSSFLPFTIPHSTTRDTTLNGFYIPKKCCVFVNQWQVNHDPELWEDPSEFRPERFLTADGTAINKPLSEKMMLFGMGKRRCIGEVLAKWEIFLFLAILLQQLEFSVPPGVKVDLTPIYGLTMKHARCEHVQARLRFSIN

Sequence of Cytochrome P450 2C9 (P11712 whole entry): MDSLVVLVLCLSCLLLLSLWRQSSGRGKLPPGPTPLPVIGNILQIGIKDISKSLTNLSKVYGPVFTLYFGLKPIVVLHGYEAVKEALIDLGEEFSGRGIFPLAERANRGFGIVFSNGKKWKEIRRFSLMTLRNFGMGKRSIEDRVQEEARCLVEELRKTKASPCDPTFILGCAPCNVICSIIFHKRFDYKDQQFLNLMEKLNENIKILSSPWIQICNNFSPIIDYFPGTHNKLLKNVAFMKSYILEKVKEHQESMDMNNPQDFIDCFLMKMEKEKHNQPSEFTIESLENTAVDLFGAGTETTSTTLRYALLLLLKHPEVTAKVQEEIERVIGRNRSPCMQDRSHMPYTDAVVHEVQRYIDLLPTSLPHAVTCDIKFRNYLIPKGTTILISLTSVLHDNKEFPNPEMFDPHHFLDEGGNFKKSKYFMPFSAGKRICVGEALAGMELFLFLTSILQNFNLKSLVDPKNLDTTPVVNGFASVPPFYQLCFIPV
Sequence of Cytochrome P450 3A4 (P08684 whole entry): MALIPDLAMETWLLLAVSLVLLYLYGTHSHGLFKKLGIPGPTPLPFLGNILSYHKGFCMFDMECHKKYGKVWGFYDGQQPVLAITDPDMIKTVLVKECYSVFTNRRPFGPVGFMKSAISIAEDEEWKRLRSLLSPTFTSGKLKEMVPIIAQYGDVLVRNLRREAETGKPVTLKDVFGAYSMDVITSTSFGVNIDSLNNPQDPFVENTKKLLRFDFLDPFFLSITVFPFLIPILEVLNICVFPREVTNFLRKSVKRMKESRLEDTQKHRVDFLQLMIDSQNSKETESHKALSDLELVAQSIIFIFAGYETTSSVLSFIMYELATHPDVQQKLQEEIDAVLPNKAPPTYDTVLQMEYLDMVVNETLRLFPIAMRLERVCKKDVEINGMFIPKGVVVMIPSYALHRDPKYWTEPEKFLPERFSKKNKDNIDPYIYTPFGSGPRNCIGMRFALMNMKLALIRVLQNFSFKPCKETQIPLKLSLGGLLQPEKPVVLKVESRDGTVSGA
Sequence of Cytochrome P450 2C19 (P33261 whole entry): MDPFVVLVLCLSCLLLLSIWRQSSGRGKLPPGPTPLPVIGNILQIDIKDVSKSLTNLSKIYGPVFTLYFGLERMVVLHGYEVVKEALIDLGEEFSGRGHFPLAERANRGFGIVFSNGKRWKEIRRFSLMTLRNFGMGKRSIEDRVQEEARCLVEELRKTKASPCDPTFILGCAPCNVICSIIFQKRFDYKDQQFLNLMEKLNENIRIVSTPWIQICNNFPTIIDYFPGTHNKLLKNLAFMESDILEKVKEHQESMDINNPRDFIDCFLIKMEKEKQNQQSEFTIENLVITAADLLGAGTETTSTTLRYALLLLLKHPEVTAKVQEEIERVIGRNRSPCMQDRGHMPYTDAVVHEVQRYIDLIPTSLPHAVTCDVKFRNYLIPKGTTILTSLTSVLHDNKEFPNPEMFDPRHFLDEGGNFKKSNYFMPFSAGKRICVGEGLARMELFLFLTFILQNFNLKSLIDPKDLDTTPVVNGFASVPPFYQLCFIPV

COc1ccc(CCn2c3c(c(=O)[nH]c2=O)C(NC(=O)c2cccs2)(C(F)(F)F)C(=O)N3)cc1OC (stereo not given)
AC50 (Cytochrome P450 2C9): 8.91 µM (inconclusive)
AC50 (Cytochrome P450 3A4): 14.1 µM (inconclusive)

CN(C)c1ccc(C2Nc3ccccc3C(=O)N2CCCN2CCOCC2)cc1 (stereo not given)
EC50 [1]: 2.02 µM (active)

COC(=O)c1ccc(N2CCN(C(C)=O)CC2)c(NC(=O)COc2ccccc2C)c1
EC50 [1]: > 195 µM (not active)

Fc1ccc(CNCc2ccccc2Cl)cc1
EC50 [1]: > 195 µM (not active)
IC50 [2]: 213 µM (active)

CC(C)(C)CC(C)(C)c1cc(O)c(O)c(CN2CCCCC2)c1
AC50 (Cytochrome P450 2C9): 7.94 µM (inconclusive)
AC50 (Cytochrome P450 3A4): 3.98 µM (inconclusive)

CCOC(=O)CNC(=O)CSc1nnc(C)c(O)n1
EC50 [1]: > 195 µM (not active)

C=CCSc1nc2ccccc2c(=O)n1Cc1ccco1
AC50 (Cytochrome P450 2C9): 3.98 µM (inconclusive)

CCN(C(=O)Cn1c([N+](=O)[O-])cnc1C)c1ccccc1
EC50 [1]: > 195 µM (not active)

CCOc1ccc(-n2cc(C(=O)NCc3ccco3)c3cc(OC)c(OC)cc3c2=O)cc1
AC50 (Cytochrome P450 2C9): 4.47 µM (inconclusive)
AC50 (Cytochrome P450 3A4): 22.4 µM (inconclusive)

CC(C)c1ccccc1-n1c(S)nnc1-c1cccnc1
EC50 [1]: > 195 µM (not active)

COc1ccc(N2CCN(CCCNC(=O)C(=O)c3c(C)[nH]c4ccccc34)CC2)cc1
EC50 [3]: > 53 µM (inactive)
IC50 [4]: > 47.1 µM (inactive)

Cc1noc(C)c1COC(=O)c1cccc(S(=O)(=O)N2c3ccccc3CC2C)c1 (stereo not given)
EC50 [3]: > 53 µM (inactive)
IC50 [4]: > 47.1 µM (inactive)

COc1ccc(N2CCN(CC(O)COCCOc3ccc(Br)cc3)CC2)cc1 (stereo not given)
EC50 [1]: > 195 µM (not active)

C=CCN=C(S)Nc1ccc2nc(C)c(C)nc2c1
AC50 (Cytochrome P450 2C9): 12.6 µM (inconclusive)

COC(=O)C1=CN(Cc2ccc(OC)c(OC)c2)C=C(C(=O)OC)C1c1ccccc1F
EC50 [1]: > 195 µM (not active)

Cc1nc2cnc(N3CCOCC3)nc2n(Cc2ccc(F)cc2)c1=O
AC50 (Cytochrome P450 2C9): 31.6 µM (inconclusive)

CCCCN(CC)S(=O)(=O)N1CCC(C(=O)NCCCN2CCOCC2)CC1
AC50 (Cytochrome P450 2C9): 25.1 µM (inconclusive)
AC50 (Cytochrome P450 2C19): 1 µM (inconclusive)

COc1ccc(NC(=O)C2c3cc(OC)c(OC)cc3C(=O)N(C)C2c2cccnc2)cc1OC (stereo not given)
AC50 (Cytochrome P450 2C9): 17.8 µM (inconclusive)

CC(C)N1C(=O)CN(C2CCCCCC2)C(=O)C1c1ccccc1F (stereo not given)
EC50 [1]: 77.6 µM (active)
EC50 [5]: 10.8 µM (active)
EC50 [6]: 20.9 µM (active)
EC50 (H4): 21 µM (active)

O=C(CN1CCCCC1)Nc1cccc2c1OCO2
EC50 [1]: > 195 µM (not active)

Cc1ccc(F)c(NC(=O)c2ccc(Cn3cc(Cl)cn3)cc2)c1
EC50 [1]: > 195 µM (not active)

Cc1cc(/C=C(/C#N)C(=O)O)c(C)n1-c1cccc2ccccc12
EC50 [3]: > 53 µM (inactive)
IC50 [4]: 6.86 µM (active)

Cc1cccc(C)c1NC(=O)c1sccc1SCc1cccc(C(F)(F)F)c1
EC50 [3]: > 53 µM (inactive)
IC50 [4]: > 47.1 µM (inactive)

Cc1ccc(OCC(=O)NC(=S)Nc2ccccn2)c(Br)c1
EC50 [1]: < 0.16 µM (active)

CC1C(=O)C(C)C(c2ccco2)NC1c1ccco1 (stereo not given)
EC50 [1]: > 195 µM (not active)

O=C(CSc1ccc(-c2ccncc2)nn1)N1CCN(c2ccccc2)CC1
EC50 [3]: > 53 µM (inactive)
IC50 [4]: > 47.1 µM (inactive)

COc1ccc(-c2cn(-c3ccccc3)nc2CO)cc1
EC50 [1]: > 195 µM (not active)

CCC[C@@H]1C[C@@]1(CCC)C(NC(=O)OCc1ccccc1)c1ccc(-c2ccccc2)cc1 (stereo not given in full)
AC50 (Cytochrome P450 2C9): 3.98 µM (inconclusive)
AC50 (Cytochrome P450 3A4): 3.98 µM (inconclusive)

COC(=O)[C@@]1(Cc2ccc(OC)cc2)[C@H]2c3cc(C(=O)N(C)C)n(CCSCCO)c3C[C@H]2CN1C(=O)c1ccccc1
AC50 (Cytochrome P450 2C9): 12.6 µM (inconclusive)
AC50 (Cytochrome P450 2C19): 20 µM (inconclusive)

COC(=O)c1ccc(NC(=O)c2ccccc2)o1
AC50 (Cytochrome P450 2C9): 17.8 µM (inconclusive)
AC50 (Cytochrome P450 1A2): 2.82 µM (inconclusive)

COc1ccc(Nc2cc(C(=O)NCCCN3CCN(C)CC3)c3ccccc3n2)cc1
AC50 (Cytochrome P450 2C9): 14.1 µM (inconclusive)
AC50 (Cytochrome P450 1A2): 10 µM (inconclusive)

COc1ccc(N(CC(=O)NCCSc2ccccn2)S(=O)(=O)c2ccc(C)cc2)cc1OC
EC50 [3]: > 53 µM (inactive)
IC50 [4]: > 47.1 µM (inactive)

COc1ccc(C(=O)NCCS(=O)(=O)N(C)C2CCCCC2)cc1
EC50 [3]: > 53 µM (inactive)
IC50 [4]: > 47.1 µM (inactive)

CCOc1ccccc1NC(=O)C1=C(C)NC(=O)NC1c1cccc(OC)c1OC (stereo not given)
AC50 (Cytochrome P450 2C9): 25.1 µM (inconclusive)

COCC(=O)N(C)[C@H]1C[C@H]2c3cc(N4CCN(C)CC4)ccc3CCN2C(=O)[C@H]1[C@H](C)O
EC50 [3]: > 53 µM (inactive)
IC50 [4]: > 47.1 µM (inactive)

Source: ChEMBL document CHEMBL1201862, “PubChem BioAssay data set” (2004)
